Test results taken from patent US9833497B2, “Human originated EGF domain proteins and use of the same” (CHENGDU SOURCEBIO LIMITED-LIABILITY COMPANY, priority 2013, dated 2017).

Legend:
Type in all cases: cell-based
E. coli DH5α = assay: Antibacterial activity: MIC and growth curve against E. coli DH5α in 96-well plate; settings: minimal inhibitory concentration against E. coli DH5α; 96-well plate, 5×10^5 CFU/mL, 37° C., judged after 8 h
Method in brief: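 MIC taken as lowest protein level with no bacterial growth, tracked by A600 every 30 min during 37 °C, 175 rpm culture. Two-fold protein series 50-12.5 μg/mL final, triplicate wells, against 5×10^5 CFU/mL of LB-washed mid-log cells.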

E. coli BL21 = assay: MIC against Gram-negative bacteria: E. coli BL21; settings: 5×10^5 CFU/mL; for MIC against E. coli BL21: 96-well plate, 37° C., 10 h
Method in brief: (§1)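 Growth inhibition by human EGF domain proteins was scored in LB liquid culture seeded at 5×10^5 CFU/mL. Protein was applied as a two-fold dilution series in triplicate, with shaking incubation at 37° C; MIC is the lowest concentration giving no growth.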

Pseudomonas aeruginosa = assay: MIC against Gram-negative bacteria: Pseudomonas aeruginosa; settings: 5×10^5 CFU/mL; for MIC against P. aeruginosa: 96-well plate, 37° C., 10 h
Method in brief: as §1

Klebsiella pneumonia = assay: MIC against Gram-negative bacteria: Klebsiella pneumonia; settings: 5×10^5 CFU/mL; for MIC against K. pneumonia: 96-well plate, 37° C., 10 h
Method in brief: as §1

Enterobacter cloacae = assay: MIC against Gram-negative bacteria: Enterobacter cloacae; settings: 5×10^5 CFU/mL; for MIC against E. cloacae: 96-well plate, 37° C., 10 h
Method in brief: as §1

Aeromonas hydrophila = assay: MIC against Gram-negative bacteria: Aeromonas hydrophila; settings: 5×10^5 CFU/mL; for MIC against A. hydrophila: 96-well plate, 37° C., 10 h
Method in brief: as §1

Citrobacter diversus = assay: MIC against Gram-negative bacteria: Citrobacter diversus; settings: 5×10^5 CFU/mL; for MIC against C. diversus: 96-well plate, 37° C., 10 h
Method in brief: as §1

Moraxella catarrhalis = assay: MIC against Gram-negative bacteria: Moraxella catarrhalis; settings: 5×10^5 CFU/mL; for MIC against M. catarrhalis: 96-well plate, 37° C., 10 h
Method in brief: as §1

Proteus mirabilis = assay: MIC against Gram-negative bacteria: Proteus mirabilis; settings: 5×10^5 CFU/mL; for MIC against P. mirabilis: 96-well plate, 37° C., 10 h
Method in brief: as §1

Proteus vulgaris = assay: MIC against Gram-negative bacteria: Proteus vulgaris; settings: 5×10^5 CFU/mL; for MIC against P. vulgaris: 96-well plate, 37° C., 10 h
Method in brief: as §1

Serratia marcescens = assay: MIC against Gram-negative bacteria: Serratia marcescens; settings: 5×10^5 CFU/mL; for MIC against S. marcescens: 96-well plate, 37° C., 10 h
Method in brief: as §1

[1] = 10 h cultivation at 37° C., two-fold serial dilution

Substance	MIC (E. coli DH5α)	MIC against E. coli BL21 (E. coli BL21; E. coli BL21)	MIC against P. aeruginosa (Pseudomonas aeruginosa; Pseudomonas aeruginosa)	MIC against K. pneumonia (Klebsiella pneumonia; Klebsiella pneumonia)	MIC against E. cloacae (Enterobacter cloacae; Enterobacter cloacae)	MIC against A. hydrophila (Aeromonas hydrophila; Aeromonas hydrophila)	MIC against C. diversus (Citrobacter diversus; Citrobacter diversus)	MIC against M. catarrhalis (Moraxella catarrhalis; Moraxella catarrhalis)	MIC against P. mirabilis (Proteus mirabilis; Proteus mirabilis)	MIC against P. vulgaris (Proteus vulgaris; Proteus vulgaris)	MIC against S. marcescens (Serratia marcescens; Serratia marcescens)	other results
PRT1317 (APNPCWPSPCSLLAQCSVSPKGQAQCHCPENYHGDGMVCL; listed as Homo sapiens)	50 µg/mL	12.5 µg/mL	50 µg/mL	25 µg/mL	12.5 µg/mL	25 µg/mL	50 µg/mL	25 µg/mL	12.5 µg/mL	50 µg/mL	12.5 µg/mL	
PRT807 (YGDGCQLPCTCQNGADCHSITGGCTCAPGFMGEVCA; listed as Homo sapiens)	25 µg/mL											MIC (μg/mL) E. coli BL21 (E. coli BL21; E. coli BL21, 10 h cultivation at 37° C.): 50 µg/mL; MIC (μg/mL) P. aeruginosa (Pseudomonas aeruginosa; P. aeruginosa, 10 h cultivation at 37° C.): 25 µg/mL; MIC (μg/mL) K. pneumonia (Klebsiella pneumonia; K. pneumonia, 10 h cultivation at 37° C.): 12.5 µg/mL; MIC (μg/mL) E. cloacae (Enterobacter cloacae; E. cloacae, 10 h cultivation at 37° C.): 50 µg/mL; MIC (μg/mL) A. hydrophila (Aeromonas hydrophila; A. hydrophila, 10 h cultivation at 37° C.): 12.5 µg/mL; MIC (μg/mL) C. diversus (Citrobacter diversus; C. diversus, 10 h cultivation at 37° C.): 25 µg/mL; MIC (μg/mL) M. catarrhalis (Moraxella catarrhalis; M. catarrhalis, 10 h cultivation at 37° C.): 50 µg/mL; MIC (μg/mL) P. mirabilis (Proteus mirabilis; P. mirabilis, 10 h cultivation at 37° C.): 12.5 µg/mL; MIC (μg/mL) P. vulgaris (Proteus vulgaris; P. vulgaris, 10 h cultivation at 37° C.): 50 µg/mL; MIC (μg/mL) S. marcescens (Serratia marcescens; S. marcescens, 10 h cultivation at 37° C.): 12.5 µg/mL
PRT1217 (EITACFPNPCRNGGSCDPIGNTFICNCKAGLTGVTCE; listed as Homo sapiens)	50 µg/mL	12.5 µg/mL	50 µg/mL	12.5 µg/mL	25 µg/mL	50 µg/mL	25 µg/mL	12.5 µg/mL	50 µg/mL	25 µg/mL	12.5 µg/mL	
PRT1237 (LGPGCLDNCRGHGDCLREQCICDPGYSGPNCY; listed as Homo sapiens)	12.5 µg/mL	12.5 µg/mL	25 µg/mL	12.5 µg/mL	12.5 µg/mL	12.5 µg/mL	25 µg/mL	50 µg/mL	25 µg/mL	12.5 µg/mL	50 µg/mL	
PRT506 (CNCSVAGSVSDGCTDEGQCHCVPGVAGKRCDRCAHGFYAYQDGSCTP; listed as Homo sapiens)	25 µg/mL											MIC against E. coli BL21 (E. coli BL21): 12.5 µg/mL; MIC against P. aeruginosa (Pseudomonas aeruginosa): 25 µg/mL; MIC against K. pneumonia (Klebsiella pneumonia): 50 µg/mL; MIC against E. cloacae (Enterobacter cloacae): 25 µg/mL; MIC against A. hydrophila (Aeromonas hydrophila): 12.5 µg/mL; MIC against C. diversus (Citrobacter diversus): 25 µg/mL; MIC against M. catarrhalis (Moraxella catarrhalis): 50 µg/mL; MIC against P. mirabilis (Proteus mirabilis): 25 µg/mL; MIC against P. vulgaris (Proteus vulgaris): 12.5 µg/mL; MIC against S. marcescens (Serratia marcescens): 12.5 µg/mL
PRT1090 (NNTRCLSNSCQNNSTCKDFSKDNDCSCSDTANNLDKDCD; listed as Homo sapiens)	25 µg/mL											MIC E. coli BL21 (E. coli BL21; [1]): 12.5 µg/mL; MIC P. aeruginosa (Pseudomonas aeruginosa; [1]): 50 µg/mL; MIC K. pneumonia (Klebsiella pneumonia; [1]): 12.5 µg/mL; MIC E. cloacae (Enterobacter cloacae; [1]): 50 µg/mL; MIC A. hydrophila (Aeromonas hydrophila; [1]): 12.5 µg/mL; MIC C. diversus (Citrobacter diversus; [1]): 25 µg/mL; MIC M. catarrhalis (Moraxella catarrhalis; [1]): 50 µg/mL; MIC P. mirabilis (Proteus mirabilis; [1]): 25 µg/mL; MIC P. vulgaris (Proteus vulgaris; [1]): 12.5 µg/mL; MIC S. marcescens (Serratia marcescens; [1]): 25 µg/mL
